Source: patent US20260191849A1, “PHARMACEUTICAL COMPOSITION FOR TREATMENT OF CANCER” (WIGEN BIOMEDICINE TECHNOLOGY (SHANGHAI) CO., LTD., priority 2022, published 2026)
Like-named read-outs stand apart in the source and are kept apart here.

Experiments:
Format in all cases: cell-based
SK-OV-3 cells = assay: Combined use of compound 257 or AMG650 with PLK1 inhibitor on SK-OV-3 cell viability, 168 h (Biological Example 21); conditions: for IC50: Homo sapiens, SK-OV-3, 168 h
Procedure: SK—OV-3 cells were seeded on a 384-well plate at 3000 cells/well. After overnight adherence culture, DMSO or compound 257 or AMG650 serially diluted in a 1:5 ratio from 400 nM and a PLK1 inhibitor with a specified concentration were added. The cell viability was assessed 168 h after dosing by measuring the intracellular ATP content. […] Furthermore, interactions between the drugs were also analyzed using the BLISS independence model, and the results are shown in FIG. 11 and FIG. 12.

HT29 cells [1] = assay: Combined use of compound 257 or AMG650 with PLK1 inhibitor on HT29 cell viability, 168 h (Biological Example 7); conditions: for Maximum inhibition rate / Minimum inhibition rate / IC50: HT29 cells; for IC50: Homo sapiens, HT-29, 168 h
Procedure: HT29 cells were seeded on a 384-well plate at 3000 cells/well. After overnight adherence culture, DMSO or compound 257 or AMG650 serially diluted in a 1:5 ratio from 400 nM and a PLK1 inhibitor with a specified concentration were added. The cell viability was assessed 168 h after dosing by measuring the intracellular ATP content. The inhibition percentages of viable cells by the compounds were calculated by comparing with the DMSO group, and the IC50 values were also calculated.

HT29 cells [2] = assay: Combined use of compound 257 or AMG650 with PLK1 inhibitor (Volasertib) on HT29 cell viability, 168 h (Biological Example 22); conditions: for IC50: Homo sapiens, HT-29, 168 h
Procedure: HT29 cells were seeded on a 384-well plate at 3000 cells/well. After overnight adherence culture, DMSO or compound 257 or AMG650 serially diluted in a 1:5 ratio from 400 nM and a PLK1 inhibitor with a specified concentration were added. The cell viability was assessed 168 h after dosing by measuring the intracellular ATP content. […] Furthermore, interactions between the drugs were also analyzed using the BLISS independence model, and the results are shown in FIG. 15 and FIG. 16.

HCT116 cells [3] = assay: Combined use of compound 257, AMG650 or Compound A with PLK1 inhibitor on HCT116 cell viability, 168 h (Biological Example 20)
Procedure: HCT116 cells were seeded on a 384-well plate at 3000 cells/well. After overnight adherence culture, DMSO or compound 257, AMG650, or Compound A serially diluted in a 1:5 ratio from 400 nM and a PLK1 inhibitor with a specified concentration were added. The cell viability was assessed 168 h after dosing by measuring the intracellular ATP content. The inhibition percentages of viable cells by the compounds were calculated by comparing with the DMSO group, and the IC50 values were also calculated.

HCT116 cells [4] = assay: Combined use of compound 257 or AMG650 with PLK1 inhibitor on HCT116 cell viability, 168 h (Biological Example 8)
Procedure: HCT116 cells were seeded on a 384-well plate at 3000 cells/well. After overnight adherence culture, DMSO or compound 257 or AMG650 serially diluted in a 1:5 ratio from 10 μM and a PLK1 inhibitor with a specified concentration were added. The cell viability was assessed 168 h after dosing by measuring the intracellular ATP content. The inhibition percentages of viable cells by the compounds were calculated by comparing with the DMSO group, and the IC50 values were also calculated.

HT29 cells [5] = assay: Combined use of compound 257, AMG650 or Compound A with PLK1 inhibitor on HT29 cell viability, 168 h (Biological Example 19); conditions: for IC50: Homo sapiens, HT-29, 168 h, HT29 cells, read-out: IC50
Procedure: HT29 cells were seeded on a 384-well plate at 3000 cells/well.

For `Cc1cc(NC(=O)c2ccc(NS(=O)(=O)CCO)cc2N2CCC3(CC2)CC3)nc(N2CCC(F)(F)CC2)n1` [AMG650], which “inhibitory effect on SK-OV-3 cells, combined use with the PLK1 inhibitor compared with monotherapy” value (SK-OV-3 cells; 168 h, Volasertib, in words) is on record?
Its value is “stronger inhibitory effect”.

What about the IC50 (SK-OV-3 cells) of the same compound?
The IC50 was 66 nM.

What about the IC50 (SK-OV-3 cells; SK-OV-3 cells, 168 h, Volasertib 0.0001 nM, read-out: IC50) of the same compound?
The IC50 was 72.2 nM.

And the IC50 (SK-OV-3 cells; SK-OV-3 cells, 168 h, Volasertib 6.25 nM, read-out: IC50)?
Its IC50 is 51.7 nM.

And the IC50 (SK-OV-3 cells; SK-OV-3 cells, 168 h, Volasertib 12.5 nM, read-out: IC50)?
Its IC50 is 34.5 nM.

What about the IC50 (SK-OV-3 cells; SK-OV-3 cells, 168 h, Volasertib 25 nM, read-out: IC50) of the same compound?
Its IC50 is 27.1 nM.

What about the IC50 (SK-OV-3 cells; SK-OV-3 cells, 168 h, Volasertib 50 nM, read-out: IC50) of the same compound?
Its IC50 is 11.2 nM.

And the Maximum inhibition rate (HT29 cells [1]; Volasertib 0 nM)?
Its Maximum inhibition rate is 96.5%.

What about the Minimum inhibition rate (HT29 cells [1]; Volasertib 0 nM) of the same compound?
Its Minimum inhibition rate is −1.4%.

And the Maximum inhibition rate (HT29 cells [1]; Volasertib 3.12 nM)?
Its Maximum inhibition rate is 95.8%.

What about the Minimum inhibition rate (HT29 cells [1]; Volasertib 3.12 nM) of the same compound?
Its Minimum inhibition rate is 3.3%.

And the Maximum inhibition rate (HT29 cells [1]; Volasertib 6.25 nM)?
The Maximum inhibition rate was 97.0%.

And the Minimum inhibition rate (HT29 cells [1]; Volasertib 6.25 nM)?
The Minimum inhibition rate was −0.4%.

What about the IC50 (HT29 cells [1]; Volasertib 0 nM) of the same compound?
Its IC50 is 84.4 nM.

And the IC50 (HT29 cells [1]; Volasertib 3.12 nM)?
Its IC50 is 26.6 nM.

And the IC50 (HT29 cells [1]; Volasertib 6.25 nM)?
Its IC50 is 16.4 nM.

And the “inhibitory effect on HT-29 cells, combined use with the PLK1 inhibitor compared with monotherapy” value (HT29 cells [1]; Volasertib, in words)?
Its value is “stronger inhibitory effect”.

What about the “inhibitory effect on HT-29 cells, combined use with the PLK1 inhibitor compared with monotherapy” value (HT29 cells [2]; 168 h, Volasertib, in words) of the same compound?
The value was “stronger inhibitory effect”.

What about the IC50 (HT29 cells [2]) of the same compound?
Its IC50 is 30.2 nM.

What about the IC50 (HT29 cells [2]; HT29 cells, 168 h, Volasertib 0.0001 nM, read-out: IC50) of the same compound?
Its IC50 is 79.9 nM.

What about the IC50 (HT29 cells [2]; HT29 cells, 168 h, Volasertib 3.13 nM, read-out: IC50) of the same compound?
Its IC50 is 43 nM.

And the IC50 (HT29 cells [2]; HT29 cells, 168 h, Volasertib 12.5 nM, read-out: IC50)?
The IC50 was 14.2 nM.

What about the IC50 (HT29 cells [2]; HT29 cells, 168 h, Volasertib 25 nM, read-out: IC50) of the same compound?
The IC50 was 5.9 nM.

What about the “synergistic effect on HCT116 cell viability, combined use with the PLK1 inhibitor” value (HCT116 cells [3]; CYC140 or TAK-960, in words) of the same compound?
The value was “no significant synergistic effect”.

And the IC50 (HCT116 cells [3]; HCT116 cells, CYC140 (Plogosertib) 1.6 nM)?
Its IC50 is > 400 nM.

And the IC50 (HCT116 cells [3]; HCT116 cells, CYC140 (Plogosertib) 8 nM)?
Its IC50 is > 400 nM.

And the IC50 (HCT116 cells [3]; HCT116 cells, CYC140 (Plogosertib) 40 nM)?
The IC50 was > 400 nM.

What about the IC50 (HCT116 cells [3]; HCT116 cells, TAK-960 0 nM) of the same compound?
Its IC50 is > 400 nM.

And the IC50 (HCT116 cells [3]; HCT116 cells, TAK-960 1.6 nM)?
Its IC50 is > 400 nM.

And the IC50 (HCT116 cells [3]; HCT116 cells, TAK-960 8 nM)?
Its IC50 is > 400 nM.

And the IC50 (HCT116 cells [3]; HCT116 cells, TAK-960 40 nM)?
The IC50 was > 400 nM.

What about the IC50 (HCT116 cells [3]; Homo sapiens, HCT-116, HCT116 cells, CYC140 (Plogosertib) 0 nM) of the same compound?
Its IC50 is > 400 nM.

And the “anti-proliferative activity against HCT116 cells, monotherapy” value (HCT116 cells [3]; in words)?
Its value is “did not exhibit anti-proliferative activity”.

What about the IC50 (HCT116 cells [4]; HCT116 cells, Volasertib 3.12 nM) of the same compound?
The IC50 was > 10000 nM.

What about the IC50 (HCT116 cells [4]; HCT116 cells, Volasertib 6.25 nM) of the same compound?
The IC50 was > 10000 nM.

And the IC50 (HCT116 cells [4]; Homo sapiens, HCT-116, HCT116 cells, Volasertib 0 nM)?
Its IC50 is > 10000 nM.

What about the “synergistic effect on HCT116 cell viability, combined use with the PLK1 inhibitor” value (HCT116 cells [4]; Volasertib, in words) of the same compound?
Its value is “no significant synergistic effect”.

And the “anti-proliferative activity against HCT116 cells, monotherapy” value (HCT116 cells [4]; in words)?
Its value is “did not exhibit anti-proliferative activity”.

What about the “inhibitory effect on HT-29 cells, combined use with the PLK1 inhibitor compared with monotherapy” value (HT29 cells [5]; CYC140 or TAK-960, in words) of the same compound?
The value was “stronger inhibitory effect”.

What about the IC50 (HT29 cells [5]; CYC140 (Plogosertib) 0.0001 nM) of the same compound?
The IC50 was 91.8 nM.

And the IC50 (HT29 cells [5]; CYC140 (Plogosertib) 1.6 nM)?
Its IC50 is 74.4 nM.

And the IC50 (HT29 cells [5]; CYC140 (Plogosertib) 8 nM)?
Its IC50 is 50.6 nM.

What about the IC50 (HT29 cells [5]; CYC140 (Plogosertib) 40 nM) of the same compound?
Its IC50 is 11.1 nM.

And the IC50 (HT29 cells [5]; TAK-960 0.0001 nM)?
Its IC50 is 88.9 nM.

And the IC50 (HT29 cells [5]; TAK-960 1.6 nM)?
Its IC50 is 58.6 nM.

What about the IC50 (HT29 cells [5]; TAK-960 8 nM) of the same compound?
Its IC50 is 16.5 nM.

And the IC50 (HT29 cells [5]; TAK-960 40 nM)?
Its IC50 is 16.1 nM.
